How the values were obtained:
Experiment in all cases: KINOMEscan competition binding
ACVR1B (human) = ACVR1B (human) (UniProt P36896)
ADCK3 (human) = ADCK3 (human) (UniProt Q8NI60)
ANKK1 (human) = ANKK1 (human) (UniProt Q8NFD2)
CAMK1D (human) = CAMK1D (human) (UniProt Q8IU85)
CDC2L2 (human) = CDC2L2 (human) (UniProt Q9UQ88)
CDC42BPA (human) = CDC42BPA (human) (UniProt Q5VT25)
CDK16 (human) = CDK16 (human) (UniProt Q00536)
CDK19 (human) = CDK19 (human) (UniProt Q9BWU1)
CHEK1 (human) = CHEK1 (human) (UniProt O14757)
DDR2 (human) = DDR2 (human) (UniProt Q16832)
DMPK (human) = DMPK (human) (UniProt Q09013)
[1] = system: EIF2AK4 KD2 (human), Q9P2K8 [S808G]
EPHA6 (human) = EPHA6 (human) (UniProt Q9UF33)
ERBB3 (human) = ERBB3 (human) (UniProt P21860)
ERBB4 (human) = ERBB4 (human) (UniProt Q15303)
FGFR1 (human) = FGFR1 (human) (UniProt P11362)
FLT3 (human) = FLT3 (human) (UniProt P36888)
[2] = system: FLT3 (human), P36888 [ITD]
[3] = system: FLT3 (human), P36888 [K663Q]
FRK (human) = FRK (human) (UniProt P42685)
[4] = system: KIT (human), P10721 [D816V]
[5] = system: LRRK2 (human), Q5S007 [G2019S]
MAP3K10 (human) = MAP3K10 (human) (UniProt Q02779)
MAP3K6 (human) = MAP3K6 (human) (UniProt O95382)
MAP4K3 (human) = MAP4K3 (human) (UniProt Q8IVH8)
MAPK14 (human) = MAPK14 (human) (UniProt Q16539)
Sequence of MAPK14 (human) (Q16539 whole entry, looked up): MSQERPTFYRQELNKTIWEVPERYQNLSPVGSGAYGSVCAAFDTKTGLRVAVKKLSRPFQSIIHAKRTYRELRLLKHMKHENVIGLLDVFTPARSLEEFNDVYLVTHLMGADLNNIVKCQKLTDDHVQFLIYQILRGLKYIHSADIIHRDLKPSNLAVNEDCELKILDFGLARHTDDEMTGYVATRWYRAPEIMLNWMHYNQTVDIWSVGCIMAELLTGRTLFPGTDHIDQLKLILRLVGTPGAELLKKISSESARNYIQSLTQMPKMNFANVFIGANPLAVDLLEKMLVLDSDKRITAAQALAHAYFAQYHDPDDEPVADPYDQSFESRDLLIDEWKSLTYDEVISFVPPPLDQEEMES

MAST1 (human) = MAST1 (human) (UniProt Q9Y2H9)
[6] = system: MET (human), P08581 [Y1235D]
NEK2 (human) = NEK2 (human) (UniProt P51955)
NTRK2 (human) = NTRK2 (human) (UniProt Q16620)
NTRK3 (human) = NTRK3 (human) (UniProt Q16288)
PDGFRB (human) = PDGFRB (human) (UniProt P09619)
[7] = system: PIK3CA (human), P42336 [C420R]
Sequence of PIK3CA (human), P42336 [C420R] (P42336 whole entry C420R, looked up): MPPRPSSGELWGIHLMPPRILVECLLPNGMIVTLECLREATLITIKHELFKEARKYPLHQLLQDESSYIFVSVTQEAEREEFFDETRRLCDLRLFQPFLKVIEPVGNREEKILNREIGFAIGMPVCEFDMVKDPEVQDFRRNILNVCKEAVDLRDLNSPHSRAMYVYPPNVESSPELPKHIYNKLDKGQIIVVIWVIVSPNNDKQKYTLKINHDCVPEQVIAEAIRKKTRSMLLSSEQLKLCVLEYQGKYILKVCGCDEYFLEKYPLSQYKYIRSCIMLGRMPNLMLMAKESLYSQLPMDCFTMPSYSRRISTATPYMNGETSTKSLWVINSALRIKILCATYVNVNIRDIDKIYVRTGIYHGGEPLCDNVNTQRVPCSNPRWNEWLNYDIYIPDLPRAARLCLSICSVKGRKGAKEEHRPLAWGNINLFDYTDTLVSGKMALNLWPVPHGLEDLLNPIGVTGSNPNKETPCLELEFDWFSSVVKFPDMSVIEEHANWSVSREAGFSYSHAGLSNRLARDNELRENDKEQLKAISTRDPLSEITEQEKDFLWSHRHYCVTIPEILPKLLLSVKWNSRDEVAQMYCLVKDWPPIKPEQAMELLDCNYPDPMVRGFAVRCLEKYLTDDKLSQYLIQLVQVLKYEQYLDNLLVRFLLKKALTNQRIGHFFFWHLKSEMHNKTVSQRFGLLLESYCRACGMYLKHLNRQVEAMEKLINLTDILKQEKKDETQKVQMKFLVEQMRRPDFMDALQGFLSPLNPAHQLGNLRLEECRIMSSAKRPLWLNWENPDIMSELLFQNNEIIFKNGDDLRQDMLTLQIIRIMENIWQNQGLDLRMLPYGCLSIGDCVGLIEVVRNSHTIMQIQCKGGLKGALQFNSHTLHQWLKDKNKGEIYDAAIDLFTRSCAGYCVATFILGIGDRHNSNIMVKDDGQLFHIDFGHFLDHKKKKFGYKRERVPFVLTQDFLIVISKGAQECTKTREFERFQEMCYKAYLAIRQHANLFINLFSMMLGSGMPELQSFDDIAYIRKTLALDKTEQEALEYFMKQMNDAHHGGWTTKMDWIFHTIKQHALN

PIK3CB (human) = PIK3CB (human) (UniProt P42338)
PIP4K2B (human) = PIP4K2B (human) (UniProt P78356)
PLK4 (human) = PLK4 (human) (UniProt O00444)
Sequence of PLK4 (human) (O00444 whole entry, looked up): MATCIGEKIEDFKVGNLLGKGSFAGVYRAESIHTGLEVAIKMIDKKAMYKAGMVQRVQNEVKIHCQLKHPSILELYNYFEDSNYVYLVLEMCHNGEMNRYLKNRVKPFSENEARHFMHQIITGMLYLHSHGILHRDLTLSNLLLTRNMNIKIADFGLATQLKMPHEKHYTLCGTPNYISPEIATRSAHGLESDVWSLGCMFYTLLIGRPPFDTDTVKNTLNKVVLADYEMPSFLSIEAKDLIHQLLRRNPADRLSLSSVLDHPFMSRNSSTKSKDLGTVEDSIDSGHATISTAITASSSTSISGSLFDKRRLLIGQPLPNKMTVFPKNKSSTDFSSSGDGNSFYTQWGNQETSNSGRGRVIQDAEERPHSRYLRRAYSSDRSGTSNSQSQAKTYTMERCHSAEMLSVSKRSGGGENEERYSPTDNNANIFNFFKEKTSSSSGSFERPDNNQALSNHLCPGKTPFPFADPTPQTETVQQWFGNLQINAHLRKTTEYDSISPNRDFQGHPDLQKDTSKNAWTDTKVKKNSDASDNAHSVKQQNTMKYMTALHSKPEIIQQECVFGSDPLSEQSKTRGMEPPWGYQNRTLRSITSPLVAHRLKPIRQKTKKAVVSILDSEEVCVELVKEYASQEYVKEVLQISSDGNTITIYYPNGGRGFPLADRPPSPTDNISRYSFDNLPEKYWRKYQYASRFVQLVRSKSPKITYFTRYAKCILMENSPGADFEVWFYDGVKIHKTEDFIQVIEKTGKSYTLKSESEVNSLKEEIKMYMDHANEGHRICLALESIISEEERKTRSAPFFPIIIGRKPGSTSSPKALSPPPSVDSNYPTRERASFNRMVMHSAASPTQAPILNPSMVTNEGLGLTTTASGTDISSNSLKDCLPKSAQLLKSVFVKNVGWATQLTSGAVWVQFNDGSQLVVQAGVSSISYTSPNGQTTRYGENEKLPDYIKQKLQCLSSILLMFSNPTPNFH

RPS6KA1 KD2 (human) = RPS6KA1 KD2 (human) (UniProt Q15418)
SNRK (human) = SNRK (human) (UniProt Q9NRH2)
SRPK2 (human) = SRPK2 (human) (UniProt P78362)
STK33 (human) = STK33 (human) (UniProt Q9BYT3)
Sequence of STK33 (human) (Q9BYT3 whole entry, looked up): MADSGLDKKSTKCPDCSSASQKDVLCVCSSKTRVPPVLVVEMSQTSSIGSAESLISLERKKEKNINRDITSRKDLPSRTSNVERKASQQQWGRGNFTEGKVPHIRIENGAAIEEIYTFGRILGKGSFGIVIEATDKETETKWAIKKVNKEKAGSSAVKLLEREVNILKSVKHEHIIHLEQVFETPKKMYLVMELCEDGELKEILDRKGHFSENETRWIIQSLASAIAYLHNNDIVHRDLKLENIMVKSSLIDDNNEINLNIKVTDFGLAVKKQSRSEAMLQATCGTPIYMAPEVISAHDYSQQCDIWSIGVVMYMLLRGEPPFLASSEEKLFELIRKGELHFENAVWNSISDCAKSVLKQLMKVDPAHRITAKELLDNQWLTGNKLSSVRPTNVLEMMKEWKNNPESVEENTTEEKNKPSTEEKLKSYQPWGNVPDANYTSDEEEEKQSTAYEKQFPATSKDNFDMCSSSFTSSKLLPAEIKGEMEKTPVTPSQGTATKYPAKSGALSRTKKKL

TAOK3 (human) = TAOK3 (human) (UniProt Q9H2K8)
TBK1 (human) = TBK1 (human) (UniProt Q9UHD2)
Sequence of TBK1 (human) (Q9UHD2 whole entry, looked up): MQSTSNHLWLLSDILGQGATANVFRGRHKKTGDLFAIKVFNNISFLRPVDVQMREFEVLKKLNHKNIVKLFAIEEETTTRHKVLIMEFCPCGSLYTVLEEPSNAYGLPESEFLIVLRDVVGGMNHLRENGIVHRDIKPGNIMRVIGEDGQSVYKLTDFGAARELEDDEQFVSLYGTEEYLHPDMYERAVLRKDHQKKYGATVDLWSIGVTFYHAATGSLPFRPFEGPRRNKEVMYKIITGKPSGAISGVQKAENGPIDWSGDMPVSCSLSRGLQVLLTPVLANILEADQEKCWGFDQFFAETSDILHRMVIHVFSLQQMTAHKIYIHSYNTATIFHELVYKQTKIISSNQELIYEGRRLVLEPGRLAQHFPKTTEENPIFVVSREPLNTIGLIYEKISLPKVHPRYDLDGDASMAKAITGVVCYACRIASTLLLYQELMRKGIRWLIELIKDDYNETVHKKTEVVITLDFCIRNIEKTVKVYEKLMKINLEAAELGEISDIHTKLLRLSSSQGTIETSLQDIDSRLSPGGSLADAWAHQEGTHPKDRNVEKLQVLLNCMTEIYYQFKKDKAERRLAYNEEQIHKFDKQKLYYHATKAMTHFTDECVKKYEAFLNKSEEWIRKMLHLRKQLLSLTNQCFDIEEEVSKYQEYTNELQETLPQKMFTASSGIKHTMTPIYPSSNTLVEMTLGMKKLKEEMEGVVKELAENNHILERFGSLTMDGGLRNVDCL

TGFBR1 (human) = TGFBR1 (human) (UniProt P36897)

Sequence of CDC2L2 (human) (Q9UQ88 whole entry, looked up): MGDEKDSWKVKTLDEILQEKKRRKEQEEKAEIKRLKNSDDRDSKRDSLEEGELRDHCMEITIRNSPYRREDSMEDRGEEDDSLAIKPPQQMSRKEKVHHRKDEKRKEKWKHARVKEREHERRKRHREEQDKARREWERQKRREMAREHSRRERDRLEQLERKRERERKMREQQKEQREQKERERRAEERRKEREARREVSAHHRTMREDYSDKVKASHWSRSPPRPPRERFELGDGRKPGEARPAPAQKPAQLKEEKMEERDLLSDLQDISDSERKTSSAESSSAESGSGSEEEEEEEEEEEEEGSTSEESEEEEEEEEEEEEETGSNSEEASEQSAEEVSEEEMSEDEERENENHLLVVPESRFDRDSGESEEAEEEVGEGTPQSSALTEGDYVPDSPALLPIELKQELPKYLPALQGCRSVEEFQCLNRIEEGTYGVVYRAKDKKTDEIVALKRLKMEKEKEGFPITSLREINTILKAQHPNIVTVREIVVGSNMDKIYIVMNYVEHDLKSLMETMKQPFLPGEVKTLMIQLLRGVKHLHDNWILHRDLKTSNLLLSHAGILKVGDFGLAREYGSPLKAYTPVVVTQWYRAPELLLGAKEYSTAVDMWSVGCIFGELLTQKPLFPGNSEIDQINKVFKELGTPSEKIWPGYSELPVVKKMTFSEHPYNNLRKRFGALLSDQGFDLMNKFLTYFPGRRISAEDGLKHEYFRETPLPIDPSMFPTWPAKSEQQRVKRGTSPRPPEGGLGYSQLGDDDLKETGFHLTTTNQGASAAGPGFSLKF
Sequence of CDK16 (human) (Q00536 whole entry, looked up): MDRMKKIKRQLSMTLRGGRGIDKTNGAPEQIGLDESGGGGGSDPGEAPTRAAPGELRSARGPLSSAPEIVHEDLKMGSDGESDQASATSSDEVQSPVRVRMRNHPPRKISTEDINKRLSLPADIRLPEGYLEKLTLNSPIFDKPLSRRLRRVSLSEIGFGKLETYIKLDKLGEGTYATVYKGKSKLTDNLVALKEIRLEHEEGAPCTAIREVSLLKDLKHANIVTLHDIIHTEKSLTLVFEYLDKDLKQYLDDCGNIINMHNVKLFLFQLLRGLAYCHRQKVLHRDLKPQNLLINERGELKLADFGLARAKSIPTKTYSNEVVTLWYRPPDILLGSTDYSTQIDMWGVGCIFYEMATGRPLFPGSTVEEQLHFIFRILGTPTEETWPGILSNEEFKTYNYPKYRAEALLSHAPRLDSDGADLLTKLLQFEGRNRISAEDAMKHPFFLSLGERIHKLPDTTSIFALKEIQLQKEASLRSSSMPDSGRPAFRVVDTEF

Cc1cc(NC(=O)c2cccc(NC(=O)/C=C/CN(C)C)c2)ccc1Nc1nccc(-c2cccnc2)n1
kinase still bound, per cent of control (ACVR1B (human); compound 1.0 µM): 88% | kinase still bound, per cent of control (ADCK3 (human); compound 1.0 µM): 100% | kinase still bound, per cent of control (ANKK1 (human); compound 1.0 µM): 75% | kinase still bound, per cent of control (CAMK1D (human); compound 1.0 µM): 100% | kinase still bound, per cent of control (CDC2L2 (human); compound 1.0 µM): 98% | kinase still bound, per cent of control (CDC42BPA (human); compound 1.0 µM): 100% | kinase still bound, per cent of control (CDK16 (human); compound 1.0 µM): 100% | kinase still bound, per cent of control (CDK19 (human); compound 1.0 µM): 62% | kinase still bound, per cent of control (CHEK1 (human); compound 1.0 µM): 98% | kinase still bound, per cent of control (DDR2 (human); compound 1.0 µM): 89% | kinase still bound, per cent of control (DMPK (human); compound 1.0 µM): 63% | kinase still bound, per cent of control ([1]; compound 1.0 µM): 100% | kinase still bound, per cent of control (EPHA6 (human); compound 1.0 µM): 100% | kinase still bound, per cent of control (ERBB3 (human); compound 1.0 µM): 93% | kinase still bound, per cent of control (ERBB4 (human); compound 1.0 µM): 96% | kinase still bound, per cent of control (FGFR1 (human); compound 1.0 µM): 94% | kinase still bound, per cent of control (FLT3 (human); compound 1.0 µM): 77% | kinase still bound, per cent of control ([2]; compound 1.0 µM): 50% | kinase still bound, per cent of control ([3]; compound 1.0 µM): 75% | kinase still bound, per cent of control (FRK (human); compound 1.0 µM): 100% | kinase still bound, per cent of control ([4]; compound 1.0 µM): 54% | kinase still bound, per cent of control ([5]; compound 1.0 µM): 67% | kinase still bound, per cent of control (MAP3K10 (human); compound 1.0 µM): 87% | kinase still bound, per cent of control (MAP3K6 (human); compound 1.0 µM): 92% | kinase still bound, per cent of control (MAP4K3 (human); compound 1.0 µM): 100% | kinase still bound, per cent of control (MAPK14 (human); compound 1.0 µM): 100% | kinase still bound, per cent of control (MAST1 (human); compound 1.0 µM): 97% | kinase still bound, per cent of control ([6]; compound 1.0 µM): 100% | kinase still bound, per cent of control (NEK2 (human); compound 1.0 µM): 100% | kinase still bound, per cent of control (NTRK2 (human); compound 1.0 µM): 96% | kinase still bound, per cent of control (NTRK3 (human); compound 1.0 µM): 79% | kinase still bound, per cent of control (PDGFRB (human); compound 1.0 µM): 4.7% | kinase still bound, per cent of control ([7]; compound 1.0 µM): 99% | kinase still bound, per cent of control (PIK3CB (human); compound 1.0 µM): 79% | kinase still bound, per cent of control (PIP4K2B (human); compound 1.0 µM): 99% | kinase still bound, per cent of control (PLK4 (human); compound 1.0 µM): 58% | kinase still bound, per cent of control (RPS6KA1 KD2 (human); compound 1.0 µM): 88% | kinase still bound, per cent of control (SNRK (human); compound 1.0 µM): 100% | kinase still bound, per cent of control (SRPK2 (human); compound 1.0 µM): 100% | kinase still bound, per cent of control (STK33 (human); compound 1.0 µM): 100% | kinase still bound, per cent of control (TAOK3 (human); compound 1.0 µM): 66% | kinase still bound, per cent of control (TBK1 (human); compound 1.0 µM): 100% | kinase still bound, per cent of control (TGFBR1 (human); compound 1.0 µM): 89%

Cc1ccc(NC(=O)c2ccc(NC(=O)/C=C/CN(C)C)cc2)cc1Nc1nccc(-c2cccnc2)n1
kinase still bound, per cent of control (ACVR1B (human); compound 10.0 µM): 70% | kinase still bound, per cent of control (ADCK3 (human); compound 10.0 µM): 76% | kinase still bound, per cent of control (ANKK1 (human); compound 10.0 µM): 13% | kinase still bound, per cent of control (CAMK1D (human); compound 10.0 µM): 85% | kinase still bound, per cent of control (CDC2L2 (human); compound 10.0 µM): 100% | kinase still bound, per cent of control (CDC42BPA (human); compound 10.0 µM): 83% | kinase still bound, per cent of control (CDK16 (human); compound 10.0 µM): 100% | kinase still bound, per cent of control (CDK19 (human); compound 10.0 µM): 32% | kinase still bound, per cent of control (CHEK1 (human); compound 10.0 µM): 100% | kinase still bound, per cent of control (DDR2 (human); compound 10.0 µM): 0.9% | kinase still bound, per cent of control (DMPK (human); compound 10.0 µM): 100% | kinase still bound, per cent of control ([1]; compound 10.0 µM): 100% | kinase still bound, per cent of control (EPHA6 (human); compound 10.0 µM): 100% | kinase still bound, per cent of control (ERBB3 (human); compound 10.0 µM): 100% | kinase still bound, per cent of control (ERBB4 (human); compound 10.0 µM): 100% | kinase still bound, per cent of control (FGFR1 (human); compound 10.0 µM): 87% | kinase still bound, per cent of control (FLT3 (human); compound 10.0 µM): 75% | kinase still bound, per cent of control ([2]; compound 10.0 µM): 46% | kinase still bound, per cent of control ([3]; compound 10.0 µM): 84% | kinase still bound, per cent of control (FRK (human); compound 10.0 µM): 86% | kinase still bound, per cent of control ([4]; compound 10.0 µM): 38% | kinase still bound, per cent of control ([5]; compound 10.0 µM): 48% | kinase still bound, per cent of control (MAP3K10 (human); compound 10.0 µM): 100% | kinase still bound, per cent of control (MAP3K6 (human); compound 10.0 µM): 100% | kinase still bound, per cent of control (MAP4K3 (human); compound 10.0 µM): 78% | kinase still bound, per cent of control (MAPK14 (human); compound 10.0 µM): 66% | kinase still bound, per cent of control (MAST1 (human); compound 10.0 µM): 89% | kinase still bound, per cent of control ([6]; compound 10.0 µM): 100% | kinase still bound, per cent of control (NEK2 (human); compound 10.0 µM): 100% | kinase still bound, per cent of control (NTRK2 (human); compound 10.0 µM): 67% | kinase still bound, per cent of control (NTRK3 (human); compound 10.0 µM): 82% | kinase still bound, per cent of control (PDGFRB (human); compound 10.0 µM): 0% | kinase still bound, per cent of control ([7]; compound 10.0 µM): 100% | kinase still bound, per cent of control (PIK3CB (human); compound 10.0 µM): 100% | kinase still bound, per cent of control (PIP4K2B (human); compound 10.0 µM): 69% | kinase still bound, per cent of control (PLK4 (human); compound 10.0 µM): 41% | kinase still bound, per cent of control (RPS6KA1 KD2 (human); compound 10.0 µM): 77% | kinase still bound, per cent of control (SNRK (human); compound 10.0 µM): 92% | kinase still bound, per cent of control (SRPK2 (human); compound 10.0 µM): 100% | kinase still bound, per cent of control (STK33 (human); compound 10.0 µM): 97% | kinase still bound, per cent of control (TAOK3 (human); compound 10.0 µM): 19% | kinase still bound, per cent of control (TBK1 (human); compound 10.0 µM): 64% | kinase still bound, per cent of control (TGFBR1 (human); compound 10.0 µM): 100%

Source: the kinase profiling compilation of Christmann-Franck et al. (2016)
